Measurements as given in ChEMBL document CHEMBL1287669, “Inhibitors selective for HDAC6 in enzymes and cells” (Bioorg Med Chem Lett, 2010).
Activity calls are given as the source filed them. The calls are words filed in the database; no cut-off is given here.

Assays:
[1] = molecular target: T1, Protein deacetylase HDAC6 (Homo sapiens) (UniProt Q9UBN7); test: Inhibition of recombinant human HDAC6 at 1 uM using Boc-Lys(Ac)-AMC as substrate by fluorometric analysis
T1 sequence (whole entry): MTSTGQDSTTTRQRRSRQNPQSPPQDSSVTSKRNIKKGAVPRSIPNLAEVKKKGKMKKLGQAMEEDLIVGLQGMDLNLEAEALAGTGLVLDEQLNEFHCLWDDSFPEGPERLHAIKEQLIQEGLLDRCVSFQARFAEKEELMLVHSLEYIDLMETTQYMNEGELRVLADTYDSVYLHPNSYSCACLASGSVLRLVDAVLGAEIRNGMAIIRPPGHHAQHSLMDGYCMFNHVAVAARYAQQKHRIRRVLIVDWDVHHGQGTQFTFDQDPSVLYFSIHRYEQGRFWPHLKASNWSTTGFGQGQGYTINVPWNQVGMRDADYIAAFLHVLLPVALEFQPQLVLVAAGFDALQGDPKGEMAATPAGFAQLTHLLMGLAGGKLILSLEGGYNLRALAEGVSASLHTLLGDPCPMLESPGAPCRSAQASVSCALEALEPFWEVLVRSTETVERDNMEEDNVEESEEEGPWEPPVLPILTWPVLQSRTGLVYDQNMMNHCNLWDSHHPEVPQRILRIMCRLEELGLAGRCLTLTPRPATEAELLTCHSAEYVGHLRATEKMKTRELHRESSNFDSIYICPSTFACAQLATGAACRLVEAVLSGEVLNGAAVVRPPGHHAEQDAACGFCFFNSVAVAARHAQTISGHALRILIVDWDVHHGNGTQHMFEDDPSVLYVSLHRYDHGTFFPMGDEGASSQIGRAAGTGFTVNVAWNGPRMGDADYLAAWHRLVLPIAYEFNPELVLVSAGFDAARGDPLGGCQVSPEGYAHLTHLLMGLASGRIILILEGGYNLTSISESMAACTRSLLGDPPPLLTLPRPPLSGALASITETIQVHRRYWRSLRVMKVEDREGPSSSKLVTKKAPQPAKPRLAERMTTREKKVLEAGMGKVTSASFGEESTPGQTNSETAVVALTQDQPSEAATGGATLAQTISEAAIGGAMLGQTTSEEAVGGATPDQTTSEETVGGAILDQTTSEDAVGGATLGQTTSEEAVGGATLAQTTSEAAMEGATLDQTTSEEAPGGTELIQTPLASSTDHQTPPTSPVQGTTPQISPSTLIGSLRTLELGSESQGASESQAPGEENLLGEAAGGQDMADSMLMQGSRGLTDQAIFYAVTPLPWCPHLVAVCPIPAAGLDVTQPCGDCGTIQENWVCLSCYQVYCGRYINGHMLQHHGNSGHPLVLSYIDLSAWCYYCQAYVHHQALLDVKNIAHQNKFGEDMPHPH

Histone deacetylase 1 [2] = molecular target: T2, Histone deacetylase 1 (Homo sapiens, UniProt Q13547); test: Inhibition of human HDAC1 in PMA-differentiated THP1 cells assessed as hyperacetylation of histone H3 after 4 hrs by Western blotting; format: cell-based; settings: THP-1
T2 sequence (Q13547 whole entry): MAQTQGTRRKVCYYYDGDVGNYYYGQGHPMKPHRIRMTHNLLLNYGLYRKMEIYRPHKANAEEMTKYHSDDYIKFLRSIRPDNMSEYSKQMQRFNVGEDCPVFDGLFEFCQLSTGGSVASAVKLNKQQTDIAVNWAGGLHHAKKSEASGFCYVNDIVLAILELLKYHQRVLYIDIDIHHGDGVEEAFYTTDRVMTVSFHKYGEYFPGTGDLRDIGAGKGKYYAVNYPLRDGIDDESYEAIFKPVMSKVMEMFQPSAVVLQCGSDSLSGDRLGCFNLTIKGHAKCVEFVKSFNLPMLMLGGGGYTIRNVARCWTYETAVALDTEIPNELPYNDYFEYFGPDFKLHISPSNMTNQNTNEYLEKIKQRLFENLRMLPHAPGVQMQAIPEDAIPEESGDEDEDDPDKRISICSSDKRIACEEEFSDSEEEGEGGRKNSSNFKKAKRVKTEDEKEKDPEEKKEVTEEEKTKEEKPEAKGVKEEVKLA

[3] = molecular target: T3, Protein deacetylase HDAC6 (Homo sapiens, UniProt Q9UBN7); test: Inhibition of recombinant human HDAC6 using Boc-Lys(Ac)-AMC as substrate by fluorometric analysis
T3 sequence (Q9UBN7 whole entry): T1 sequence (whole entry)

Histone deacetylase 1 [4] = molecular target: T2, Histone deacetylase 1; test: Inhibition of recombinant human HDAC1 using Cbz-Lys(TFAc)-AMC as substrate by fluorometric analysis
Histone deacetylase 1 [5] = molecular target: T2, Histone deacetylase 1; test: Inhibition of recombinant human HDAC1 using Ac-RHKK(Ac)-ACC as substrate by fluorometric analysis
[6] = molecular target: T3, Protein deacetylase HDAC6; test: Inhibition of recombinant human HDAC6 using Ac-RHKK(Ac)-ACC as substrate by fluorometric analysis
Homo sapiens = species on record: Homo sapiens; test: Selectivity index, IC50 for recombinant human HDAC6 to IC50 for recombinant human HDAC1

Structure (SMILES)	inhibition [1] [%]	IC50 [3] [nM]	IC50 (Histone deacetylase 1 [4]) [nM]	further results
CC(C)(C)OC(=O)N[C@@H](CCCCCS)C(=O)NC1CCCC1	98	54	1730	inhibition (Histone deacetylase 1 [2]): Active
CC(C)(C)OC(=O)N[C@@H](CCCCCCS)C(=O)NC1CCCC1	60	–	–	–
CC(C)(C)OC(=O)N[C@@H](CCCCCCO)C(=O)NC1CCCC1	3	–	–	–
CC(C)(C)OC(=O)N[C@@H](CCCCCC(=O)NO)C(=O)NC1CCCC1	99	26	1420	IC50 (Histone deacetylase 1 [5]): 3570 nM; IC50 [6]: 27 nM
O=C(O)CCCC[C@H](NC(=O)OCc1ccccc1)C(=O)NC1CCCC1	20	–	–	–
CC(C)(C)OC(=O)N[C@@H](CCCCCO)C(=O)NC1CCCC1	80	240	> 10000	–
COC(=O)CCCCC[C@H](NC(=O)OCc1ccccc1)C(=O)NC1CCCC1	65	–	–	–
O=C(CCCCC[C@H](NC(=O)c1cc2ccccc2[nH]1)C(=O)Nc1cccc2cccnc12)NO	–	107	48	–
CC(C)(C)OC(=O)N[C@@H](CCCCO)C(=O)NC1CCCC1	50	–	–	–
CC(C)(C)OC(=O)Nc1ccc(-c2cc(C(=O)NCCCCCCC(=O)NO)no2)cc1	–	–	340	IC50 (Histone deacetylase 1 [5]): 3570 nM
CN(C)c1ccc(C(=O)N[C@@H](CCCCCC(=O)NO)C(=O)Nc2cccc3cccnc23)cc1	–	943	21	–
O=C(CCCCCn1c2ccccc2c2ccccc21)NO	–	–	–	Ratio IC50 (Homo sapiens): 74; IC50 (Histone deacetylase 1 [5]): 3070 nM; IC50 [6]: 41 nM
O=C(O)CCCCC[C@H](NC(=O)OCc1ccccc1)C(=O)NC1CCCC1	40	–	–	–
COC(=O)CCCC[C@H](NC(=O)OC(C)(C)C)C(=O)NC1CCCC1	40	–	–	–
COC(=O)CCCCC[C@H](NC(=O)OC(C)(C)C)C(=O)NC1CCCC1	60	–	–	–
CC(C)(C)OC(=O)N[C@@H](CCCCCC(=O)O)C(=O)NC1CCCC1	45	–	–	–
